Test results from PMC6710338, “Turning a Collagenesis-Inducing Peptide Into a Potent Antibacterial and Antibiofilm Agent Against Multidrug-Resistant Gram-Negative Bacteria” (Frontiers in Microbiology, 2019).
Like-named read-outs stand apart in the source and are kept apart here. Square brackets hold non-standard residues; d marks the D form. Peptide text beside a SMILES is read from it. * marks the point of attachment. Palmitoyl = CCCCCCCCCCCCCCCC(=O)*; βAla = NCCC(=O)O

Key:
[1] = test system: E. coli ATCC 25922; test: MIC, broth microdilution (CLSI), ATCC reference strain; format: cell-based, Escherichia coli
Protocol: (§1) The minimum inhibitory concentration (MIC) of synthetic peptides was determined using the broth microdilution method in cation-adjusted Mueller-Hinton broth (MHB2 – Sigma-Aldrich, St. Louis, MO, United States), according to the recommendations of the Clinical and Laboratory Standards Institute ([CLSI, 2012]), against four reference strains, namely, P. aeruginosa ATCC 27853, E. coli ATCC 25922, S. aureus ATCC 25923 and Enterococcus faecalis ATCC 29212. MIC values of peptide 3.1-PP4 were also determined against MDR clinical isolates of P. aeruginosa (PA002, PA004, Pa3, Pa4), E. coli (Ec1, Ec2, EC001, EC002, EC003) and K. pneumoniae (KP004, KP007, KP010). The peptides were tested in the concentration range of 1–1024 μg/mL. The minimum bactericidal concentration (MBC) was determined as previously reported ([Bessa et al., 2018]). According to CLSI guidelines for antimicrobial susceptibility testing, MIC values were determined for all peptides against ATCC reference strains of two Gram-positive (S. aureus ATCC 25923 and E. faecalis ATCC 29212), and two Gram-negative (P. aeruginosa ATCC 27853 and E. coli ATCC 25922) bacterial species, and are shown in Table 2.

[2] = test system: P. aeruginosa ATCC 27853; test: as above; format: cell-based, Pseudomonas aeruginosa
Protocol: as §1

[3] = test system: S. aureus ATCC 25923; test: as above; format: cell-based, Staphylococcus aureus
Protocol: as §1

[4] = test system: E. faecalis ATCC 29212; test: as above; format: cell-based, Enterococcus faecalis
Protocol: as §1

[5] = test system: HFF-1 cells; format: cell-based, human
Protocol: Immortalized human foreskin fibroblasts (HFF-1) were grown as a monolayer from passage number 8–16. For routine maintenance, HFF-1 cells were cultured in Dulbecco’s Modified Eagle Medium (DMEM, from Cell Lines Service) supplemented with 15% fetal bovine serum (FBS, from CLS) and 1% antibiotic/antimycotic solution (100 units/mL of penicillin, 100 μg/mL of streptomycin and 0.25 μg/mL of amphotericin B, from Sigma-Aldrich, St. Louis, MO, United States) at 37°C in an humidified atmosphere with 5% CO2. Cells were harvested by trypsinization [0.25% (w/v) trypsin-EDTA4Na, Sigma-Aldrich, St. Louis, MO, United States] twice a week.
The cytotoxicity of synthetic peptides to HFF-1 cells was evaluated using the standard MTT assay. Briefly, cells were seeded at a density of 8 × 10^4 cells/well onto 96-well plate and incubated at 37°C in a 5% CO2 atmosphere. Cells were allowed to grow for 48 h, and serially diluted peptide solutions (0.78–100 μM) were added to the wells. Then, cells were incubated for 72 h at 37°C, after which wells were washed once with phosphate buffered saline (PBS, Sigma-Aldrich, St. Louis, MO, United States), followed by addition of a 0.45 mg/mL MTT solution to each well. Crystals were allowed to form for 1.5 h. Reaction was stopped by rejecting the medium and addition of dimethylsulfoxide (DMSO, Sigma-Aldrich, St. Louis, MO, United States). Absorbance was read at 570 nm (Biotek PowerWave XS).
At the end of the cytotoxicity assays, the number of viable cells was never below that of initially plated cells. As such, data are represented as peptide concentrations causing 50% growth inhibition (IC50) on HFF-1 cells, rather than as lethal dosis values. IC50 values thus obtained are also included in Table 2.

[6] = E. coli ATCC 25922, broth microdilution in cation-adjusted Mueller-Hinton broth (MHB2), CLSI, range tested 1–1024 μg/mL
[7] = P. aeruginosa ATCC 27853, broth microdilution in MHB2, CLSI, range tested 1–1024 μg/mL
[8] = S. aureus ATCC 25923, broth microdilution in MHB2, CLSI, range tested 1–1024 μg/mL
[9] = E. faecalis ATCC 29212, broth microdilution in MHB2, CLSI, range tested 1–1024 μg/mL

SMILES	MIC ([1]; ATCC 25922) [µM]	MIC ([2]; ATCC 27853) [µM]	MIC ([3]; ATCC 25923) [µM]	MIC ([4]; ATCC 29212)	MIC [1, 6] [µg/mL]	MIC [2, 7] [µg/mL]	MIC [3, 8] [µg/mL]	MIC [4, 9] [µg/mL]	IC50 ([5]; 72 h) [µM]	MIC ([1]; E. coli ATCC 25922, broth microdilution in MHB2, CLSI, value in parentheses) [µM]	MIC ([2]; P. aeruginosa ATCC 27853, broth microdilution in MHB2, CLSI, value in parentheses) [µM]	MIC ([3]; S. aureus ATCC 25923, broth microdilution in MHB2, CLSI, value in parentheses) [µM]	MIC ([4]; E. faecalis ATCC 29212, broth microdilution in MHB2, CLSI, value in parentheses) [µM]	IC50 ([5]; 50% growth inhibition, MTT, 72 h incubation at 37°C, 0.78–100 μM, absorbance 570 nm, read-out: IC50 ± SEM on HFF-1 cells) [µM]
C[C@@H](O)[C@H](NC(=O)[C@@H](NC(=O)[C@@H](N)CCCCN)[C@@H](C)O)C(=O)N[C@@H](CCCCN)C(=O)N[C@@H](CO)C(N)=O [PP4, reference compound] (H-KTTKS-NH2)	> 1820	> 1820	> 1820	> 1820 µM					> 100					
CC(C)C[C@H](NC(=O)[C@H](CC(C)C)NC(=O)[C@H](CCCCN)NC(=O)[C@H](CC(C)C)NC(=O)[C@H](CC(C)C)NC(=O)[C@H](Cc1c[nH]c2ccccc12)NC(=O)[C@H](CCCCN)NC(=O)[C@H](CC(C)C)NC(=O)[C@H](CC(C)C)NC(=O)[C@H](CCCCN)NC(=O)[C@@H](N)CCCCN)C(N)=O [Peptide 3.1, reference compound] (H-KKLLKWLLKLL-NH2)										6	3	3	3 to 6	50 ± 3
CCCCCCCCCCCCCCCC(=O)N[C@@H](CCCCN)C(=O)N[C@@H](CCCCN)C(=O)N[C@@H](CC(C)C)C(=O)N[C@@H](CC(C)C)C(=O)N[C@@H](CCCCN)C(=O)N[C@@H](Cc1c[nH]c2ccccc12)C(=O)N[C@@H](CC(C)C)C(=O)N[C@@H](CC(C)C)C(=O)N[C@@H](CCCCN)C(=O)N[C@@H](CC(C)C)C(=O)N[C@@H](CC(C)C)C(N)=O [Peptide C16-3.1] (Palmitoyl-KKLLKWLLKLL-NH2)	78.4	78.4	> 627	256 µg/mL	128	128	> 1024		23.4 ± 0.7					
CCCCCCCCCCCCCCCC(=O)N[C@@H](CCCCN)C(=O)N[C@H](C(=O)N[C@H](C(=O)N[C@@H](CCCCN)C(=O)N[C@@H](CO)C(N)=O)[C@@H](C)O)[C@@H](C)O [Peptide C16-PP4, reference compound] (Palmitoyl-KTTKS-NH2)									> 100					

The next lines start with results.

MIC ([1]; ATCC 25922) [µM]	MIC ([2]; ATCC 27853) [µM]	MIC ([3]; ATCC 25923) [µM]	MIC ([4]; ATCC 29212)	MIC [1, 6] [µg/mL]	MIC [2, 7] [µg/mL]	MIC [3, 8] [µg/mL]	MIC [4, 9] [µg/mL]	SMILES	IC50 ([5]; 72 h) [µM]	MIC ([1]; E. coli ATCC 25922, broth microdilution in MHB2, CLSI, value in parentheses) [µM]	MIC ([2]; P. aeruginosa ATCC 27853, broth microdilution in MHB2, CLSI, value in parentheses) [µM]	MIC ([3]; S. aureus ATCC 25923, broth microdilution in MHB2, CLSI, value in parentheses) [µM]	MIC ([4]; E. faecalis ATCC 29212, broth microdilution in MHB2, CLSI, value in parentheses) [µM]	IC50 ([5]; 50% growth inhibition, MTT, 72 h incubation at 37°C, 0.78–100 μM, absorbance 570 nm, read-out: IC50 ± SEM on HFF-1 cells) [µM]
2	1	4	8 µM					CC(C)C[C@H](NC(=O)[C@H](CC(C)C)NC(=O)[C@H](CCCCN)NC(=O)[C@H](CC(C)C)NC(=O)[C@H](CC(C)C)NC(=O)[C@H](Cc1c[nH]c2ccccc12)NC(=O)[C@H](CCCCN)NC(=O)[C@H](CC(C)C)NC(=O)[C@H](CC(C)C)NC(=O)[C@H](CCCCN)NC(=O)[C@H](CCCCN)NC(=O)[C@H](CO)NC(=O)[C@H](CCCCN)NC(=O)[C@@H](NC(=O)[C@@H](NC(=O)[C@@H](N)CCCCN)[C@@H](C)O)[C@@H](C)O)C(N)=O [PP4-3.1] (H-KTTKSKKLLKWLLKLL-NH2)	25 ± 2					
2	2	4	4 µM					CC(C)C[C@H](NC(=O)[C@H](CC(C)C)NC(=O)[C@H](CCCCN)NC(=O)[C@H](CC(C)C)NC(=O)[C@H](CC(C)C)NC(=O)[C@H](Cc1c[nH]c2ccccc12)NC(=O)[C@H](CCCCN)NC(=O)[C@H](CC(C)C)NC(=O)[C@H](CC(C)C)NC(=O)[C@H](CCCCN)NC(=O)[C@H](CCCCN)NC(=O)CCNC(=O)[C@H](CO)NC(=O)[C@H](CCCCN)NC(=O)[C@@H](NC(=O)[C@@H](NC(=O)[C@@H](N)CCCCN)[C@@H](C)O)[C@@H](C)O)C(N)=O [PP4-β-ala-3.1] (H-KTTKS[βAla]KKLLKWLLKLL-NH2)	24 ± 2					
29	29	59	30 to 59 µM	64	64	128	64 to 128	CCCCCCCCCCCCCCCC(=O)N[C@@H](CCCCN)C(=O)N[C@@H](CCCCN)C(=O)N[C@@H](CC(C)C)C(=O)N[C@@H](CC(C)C)C(=O)N[C@@H](CCCCN)C(=O)N[C@@H](Cc1c[nH]c2ccccc12)C(=O)N[C@@H](CC(C)C)C(=O)N[C@@H](CC(C)C)C(=O)N[C@@H](CCCCN)C(=O)N[C@@H](CC(C)C)C(=O)N[C@@H](CC(C)C)C(=O)N[C@@H](CCCCN)C(=O)N[C@H](C(=O)N[C@H](C(=O)N[C@@H](CCCCN)C(=O)N[C@@H](CO)C(N)=O)[C@@H](C)O)[C@@H](C)O [Peptide C16-3.1-PP4] (Palmitoyl-KKLLKWLLKLLKTTKS-NH2)	17.8 ± 0.5					
15	29	29	29 µM	32	64	64	64	CCCCCCCCCCCCCCCC(=O)N[C@@H](CCCCN)C(=O)N[C@H](C(=O)N[C@H](C(=O)N[C@@H](CCCCN)C(=O)N[C@@H](CO)C(=O)N[C@@H](CCCCN)C(=O)N[C@@H](CCCCN)C(=O)N[C@@H](CC(C)C)C(=O)N[C@@H](CC(C)C)C(=O)N[C@@H](CCCCN)C(=O)N[C@@H](Cc1c[nH]c2ccccc12)C(=O)N[C@@H](CC(C)C)C(=O)N[C@@H](CC(C)C)C(=O)N[C@@H](CCCCN)C(=O)N[C@@H](CC(C)C)C(=O)N[C@@H](CC(C)C)C(N)=O)[C@@H](C)O)[C@@H](C)O [Peptide C16-PP4-3.1] (Palmitoyl-KTTKSKKLLKWLLKLL-NH2)	4.98 ± 0.08					
